Test results as given in ChEMBL document CHEMBL4483862, “Open-source discovery of chemical leads for next-generation chemoprotective antimalarials” (2018).

System: Plasmodium berghei
Experiment: Luciferase/luciferin-expressing antifolate-resistant parasites were used to infect a culture of HepG2 cells that were pre-incubated with compounds. Infected hepatocytes emit light due to the luciferase reaction. Assay results are presented as the percent inhibition of light emission compared to control. […]
Type: functional
Settings: sporozoite; for IC90: read-out: LUCIFERASE INFECTION ASSAY - IC90

## O=c1c(Cl)c2oc3ccccc3nc-2c2ccccc12
HEPG2TOX_HILL_SLOPE 6.69, HEPG2TOX_R_SQUARED 0.668, PBLUC_HILL_SLOPE 2.65, PBLUC_R_SQUARED 0.745, read-out: LUCIFERASE INFECTION ASSAY - IC50
  IC50: 5.79 µM
  IC90: > 11.7 µM

## Cc1c(C)c(C)c2[nH]c(S)nc2c1C
HEPG2TOX_HILL_SLOPE 6.45, HEPG2TOX_R_SQUARED 0.505, PBLUC_HILL_SLOPE 19.5, PBLUC_R_SQUARED 0.258, read-out: LUCIFERASE INFECTION ASSAY - IC50
  IC50: 15.4 µM
  IC90: > 16 µM

## NC(Cc1ccc(Cl)cc1)c1csc(Nc2ncccn2)n1 (stereo unspecified)
HEPG2TOX_HILL_SLOPE 6.68, HEPG2TOX_R_SQUARED 0.347, PBLUC_HILL_SLOPE 658, PBLUC_R_SQUARED 0.395, read-out: LUCIFERASE INFECTION ASSAY - IC50
  IC50: 5.29 µM
  IC90: 5.31 µM

## CSc1sc(C(=O)NN=C(C)C)c2c1C(O)CCC2 (stereo unspecified)
HEPG2TOX_HILL_SLOPE 6.67, HEPG2TOX_R_SQUARED 0.767, PBLUC_HILL_SLOPE 1.8, PBLUC_R_SQUARED 0.584, read-out: LUCIFERASE INFECTION ASSAY - IC50
  IC50: 10.2 µM
  IC90: > 11.1 µM

## CCOc1cc(/C=C/c2nc3cc(C)c(C)cc3s2)ccc1O
HEPG2TOX_HILL_SLOPE 6.63, HEPG2TOX_R_SQUARED 0.787, PBLUC_HILL_SLOPE 3.12, PBLUC_R_SQUARED 0.499, read-out: LUCIFERASE INFECTION ASSAY - IC50
  IC50: 6.52 µM
  IC90: > 10 µM

## CCCCNC(=O)c1c(NC(=O)C(C)Oc2ccccc2)nc2ccc(C)cn12 (stereo unspecified)
HEPG2TOX_HILL_SLOPE 6.71, HEPG2TOX_R_SQUARED 0.423, PBLUC_HILL_SLOPE 12, PBLUC_R_SQUARED 0.638, read-out: LUCIFERASE INFECTION ASSAY - IC50
  IC50: 7.31 µM
  IC90: > 8.37 µM

## O=S(=O)(c1ccc2oc(Nc3ccc(Cl)c(C(F)(F)F)c3)nc2c1)N1CCOCC1
HEPG2TOX_HILL_SLOPE 6.56, HEPG2TOX_R_SQUARED 0.393, PBLUC_HILL_SLOPE 2.74, PBLUC_R_SQUARED 0.701, read-out: LUCIFERASE INFECTION ASSAY - IC50
  IC50: 4.51 µM
  IC90: > 10 µM

## O=C(Nc1ccc(OC(F)(F)F)cc1)Nc1ccc(Sc2ccc(Cl)cc2)nc1
HEPG2TOX_HILL_SLOPE 6.6, HEPG2TOX_R_SQUARED 0.793, PBLUC_HILL_SLOPE 3.54, PBLUC_R_SQUARED 0.066, read-out: LUCIFERASE INFECTION ASSAY - IC50
  IC50: 6.05 µM
  IC90: > 7.5 µM

## COC(=O)c1ccc(C(=O)Nc2nc3ccc(C)cn3c2C(=O)NC2CCCCC2)cc1
HEPG2TOX_HILL_SLOPE 6.71, HEPG2TOX_R_SQUARED 0.117, PBLUC_HILL_SLOPE 12.8, PBLUC_R_SQUARED 0.0177, read-out: LUCIFERASE INFECTION ASSAY - IC50
  IC50: 7.03 µM
  IC90: > 7.6 µM

## CCc1cccc2c(/C=C(\C#N)c3nc4ccccc4[nH]3)c[nH]c12
HEPG2TOX_HILL_SLOPE 6.57, HEPG2TOX_R_SQUARED 0.521, read-out: LUCIFERASE INFECTION ASSAY - IC50
  IC50: > 10 µM
  IC90: > 10 µM

## COc1ccc(Cl)cc1C(=O)NCCC(c1ccccc1)c1ccccc1
HEPG2TOX_HILL_SLOPE 6.56, HEPG2TOX_R_SQUARED 0.368, PBLUC_HILL_SLOPE 3.72, PBLUC_R_SQUARED 0.314, read-out: LUCIFERASE INFECTION ASSAY - IC50
  IC50: 5.39 µM
  IC90: > 8.69 µM

## Cn1cc(CN2CCc3c(c(C(=O)NCc4nccs4)nn3Cc3ccccc3)C2)c2ccccc21
HEPG2TOX_HILL_SLOPE 6.66, HEPG2TOX_R_SQUARED 0.254, PBLUC_HILL_SLOPE 4.38, PBLUC_R_SQUARED 0.819, read-out: LUCIFERASE INFECTION ASSAY - IC50
  IC50: 3.47 µM
  IC90: 5.73 µM

## CNc1ccccc1C(C)(C)c1cc(NC(=O)C2CCCC2)sc1C(=O)c1ccc(Cl)cc1
HEPG2TOX_HILL_SLOPE 6.51, HEPG2TOX_R_SQUARED 0.0707, read-out: LUCIFERASE INFECTION ASSAY - IC50
  IC50: > 10 µM
  IC90: > 10 µM

## CC1C/C(=N\Nc2cc(Cl)cc(Cl)c2)c2cc(Cl)ccc2S1 (stereo unspecified)
HEPG2TOX_HILL_SLOPE 6.52, HEPG2TOX_R_SQUARED 0.251, PBLUC_HILL_SLOPE 17, PBLUC_R_SQUARED 0.35, read-out: LUCIFERASE INFECTION ASSAY - IC50
  IC50: 8.47 µM
  IC90: > 8.88 µM

## CCOC(=O)c1ccc(N2C(=O)c3ccccc3C(C=NNC(=O)c3ccoc3C)C2=O)c(Cl)c1 (stereo unspecified)
HEPG2TOX_HILL_SLOPE 6.47, HEPG2TOX_R_SQUARED 0.622, PBLUC_HILL_SLOPE 28.4, PBLUC_R_SQUARED 0.423, read-out: LUCIFERASE INFECTION ASSAY - IC50
  IC50: 9.76 µM
  IC90: > 10 µM

## Fc1ccc2c(c1)/C(=N\Nc1nc3ccccc3[nH]1)CCS2
HEPG2TOX_HILL_SLOPE 6.62, HEPG2TOX_R_SQUARED 0.538, PBLUC_HILL_SLOPE 9.53, PBLUC_R_SQUARED 0.0234, read-out: LUCIFERASE INFECTION ASSAY - IC50
  IC50: 8.49 µM
  IC90: > 10 µM

## CNc1nc2cnc(Nc3cccc(C)c3)cc2n1Cc1ccc(OC)c(OC)c1
HEPG2TOX_HILL_SLOPE 6.56, HEPG2TOX_R_SQUARED 0.678, read-out: LUCIFERASE INFECTION ASSAY - IC50
  IC50: > 10 µM
  IC90: > 10 µM

## O=C(/C=C/c1ccccc1)c1ccc(-n2nncc2-c2ccccc2)cc1
HEPG2TOX_HILL_SLOPE 6.47, HEPG2TOX_R_SQUARED 0.294, read-out: LUCIFERASE INFECTION ASSAY - IC50
  IC50: > 10 µM
  IC90: > 10 µM

## CC(Oc1ccc(C(=O)c2ccc(F)cc2)cc1)C(=O)NC1(C#N)CCCCC1 (stereo unspecified)
HEPG2TOX_HILL_SLOPE 6.49, HEPG2TOX_R_SQUARED 0.548, PBLUC_HILL_SLOPE 2.92, PBLUC_R_SQUARED 0.383, read-out: LUCIFERASE INFECTION ASSAY - IC50
  IC50: 7.61 µM
  IC90: > 10 µM

## Cn1ccnc1S/C(=C/C=C(C#N)C#N)c1ccc(Cl)cc1
HEPG2TOX_HILL_SLOPE 6.6, HEPG2TOX_R_SQUARED 0.647, PBLUC_HILL_SLOPE 3.43, PBLUC_R_SQUARED 0.702, read-out: LUCIFERASE INFECTION ASSAY - IC50
  IC50: 5.57 µM
  IC90: > 10.1 µM

## COc1ccccc1C(CCNCc1ccc(F)cc1)c1ccco1 (stereo unspecified)
HEPG2TOX_HILL_SLOPE 6.69, HEPG2TOX_R_SQUARED 0.485, PBLUC_HILL_SLOPE 6.64, PBLUC_R_SQUARED 0.691, read-out: LUCIFERASE INFECTION ASSAY - IC50
  IC50: 1.19 µM
  IC90: 1.66 µM

## COc1ccc(Nc2cc3c(cn2)cc(-c2ccc(C(=O)N(C)C)cc2)n3Cc2ccccc2)cc1
HEPG2TOX_HILL_SLOPE 6.65, HEPG2TOX_R_SQUARED 0.257, PBLUC_HILL_SLOPE 26.3, PBLUC_R_SQUARED 0.641, read-out: LUCIFERASE INFECTION ASSAY - IC50
  IC50: 8.59 µM
  IC90: 9.34 µM

## Cc1ccc(-c2nc(NC(=O)c3ccn(C)c(=O)c3)sc2-c2ccc(C)cc2)cc1
HEPG2TOX_HILL_SLOPE 6.56, HEPG2TOX_R_SQUARED 0.678, PBLUC_HILL_SLOPE 73.6, 3.22, PBLUC_R_SQUARED 0.772, 0.348, read-out: LUCIFERASE INFECTION ASSAY - IC50
  IC50: 3.76 µM
  IC90: 5.86 µM

## CC(C)(C)OC(=O)N1CCc2nc(NC(=O)c3ccc4nc[nH]c4c3)sc2C1
HEPG2TOX_HILL_SLOPE 6.67, HEPG2TOX_R_SQUARED 0.917, read-out: LUCIFERASE INFECTION ASSAY - IC50
  IC50: > 10 µM
  IC90: > 10 µM

## CC1=CC(=O)N(c2ccc(F)c(Cl)c2)C1=O
HEPG2TOX_HILL_SLOPE 6.55, HEPG2TOX_R_SQUARED 0.196, PBLUC_HILL_SLOPE 2.8, PBLUC_R_SQUARED 0.561, read-out: LUCIFERASE INFECTION ASSAY - IC50
  IC50: 8.94 µM
  IC90: > 13.8 µM

## NC(=O)c1c(NC(=O)NCc2cccnc2)sc2c1CCC2
HEPG2TOX_HILL_SLOPE 6.58, HEPG2TOX_R_SQUARED 0.0674, read-out: LUCIFERASE INFECTION ASSAY - IC50
  IC50: > 10.4 µM
  IC90: > 10.4 µM

## Oc1ccccc1/C=N/Nc1cccc(C(F)(F)F)c1
HEPG2TOX_HILL_SLOPE 6.57, HEPG2TOX_R_SQUARED 0.439, PBLUC_HILL_SLOPE 2.9, PBLUC_R_SQUARED 0.288, read-out: LUCIFERASE INFECTION ASSAY - IC50
  IC50: > 11.8 µM
  IC90: > 11.8 µM

## NS(=O)(=O)c1ccc(CCNc2nn3c(-c4cccs4)cnc3s2)cc1
HEPG2TOX_HILL_SLOPE 6.48, HEPG2TOX_R_SQUARED 0.0577, read-out: LUCIFERASE INFECTION ASSAY - IC50
  IC50: > 8.14 µM
  IC90: > 8.14 µM

## CSc1nc2c(c(=O)n(C)c(=O)n2C)n1Cc1cccc(C(F)(F)F)c1
HEPG2TOX_HILL_SLOPE 6.71, HEPG2TOX_R_SQUARED 0.561, read-out: LUCIFERASE INFECTION ASSAY - IC50
  IC50: > 8.59 µM
  IC90: > 8.59 µM

## Cc1cc2cc(Nc3ccc(S(=O)(=O)NC(C)(C)C)cc3[N+](=O)[O-])ccc2[nH]1
HEPG2TOX_HILL_SLOPE 6.66, HEPG2TOX_R_SQUARED 0.674, PBLUC_HILL_SLOPE 2.21, PBLUC_R_SQUARED 0.655, read-out: LUCIFERASE INFECTION ASSAY - IC50
  IC50: 4.89 µM
  IC90: > 10 µM

## CCCCNC(=O)c1c(NC(=O)c2ccccc2C(F)(F)F)nc2ccccn12
HEPG2TOX_HILL_SLOPE 6.6, HEPG2TOX_R_SQUARED 0.306, PBLUC_HILL_SLOPE 21.5, PBLUC_R_SQUARED 0.838, read-out: LUCIFERASE INFECTION ASSAY - IC50
  IC50: 7.33 µM
  IC90: 8.11 µM

## c1ccc(C(CCNCc2ccco2)c2ccco2)cc1 (stereo unspecified)
HEPG2TOX_HILL_SLOPE 6.65, HEPG2TOX_R_SQUARED 0.638, PBLUC_HILL_SLOPE 2.47, PBLUC_R_SQUARED 0.734, read-out: LUCIFERASE INFECTION ASSAY - IC50
  IC50: 4.89 µM
  IC90: > 11.7 µM

## Cc1cccc(-c2cc(C(=O)Nc3cccc(Cl)c3)[nH]n2)c1O
HEPG2TOX_HILL_SLOPE 6.46, HEPG2TOX_R_SQUARED 0.463, PBLUC_HILL_SLOPE 41.9, PBLUC_R_SQUARED 0.193, read-out: LUCIFERASE INFECTION ASSAY - IC50
  IC50: 9.38 µM
  IC90: 9.89 µM
